pIC50: −log10 of the molar value.
Molecular target: T1, full length active recombinant SYK enzyme (Homo sapiens, UniProt P43405)
T1 construct: full length active recombinant SYK enzyme (Millipore, Calif.); purchased Millipore
Test: Inhibition of Syk tyrosine phosphorylation activity (LANCE TR-FRET kinase assay)
Type: biochemical
Conditions: activity in the Syk assays, class symbols
Outline: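 1 nM full-length active recombinant SYK phosphorylated 550 nM biotin-DEEDYESP-OH with 100 μM ATP in 50 mM Tris pH 7.5, 5 mM MgCl2, 1 mM DTT and 3% DMSO for 1 h at room temperature. After EDTA quench, Eu-anti-phosphotyrosine/SA-APC TR-FRET was read after 1 h. IC50s came from non-linear regression.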

pIC50, 8.00 to 9.00:
CCc1cc(Nc2nc(N[C@@H](C(N)=O)C(C)C)cnc2C(N)=O)sn1 [Example 224, (R)-5-(1-amino-3-methyl-1-oxobutan-2-ylamino)-3-(3-ethylisothiazol-5-ylamino)pyrazine-2-carboxamide]
CCc1cc(Nc2nc(N[C@H](CC3CC3)C(N)=O)cnc2C(N)=O)sn1 [Example 225, (R)-5-(1-amino-3-cyclopropyl-1-oxopropan-2-ylamino)-3-(3-ethylisothiazol-5-ylamino)pyrazine-2-carboxamide]
CC[C@@H](Nc1cnc(C(N)=O)c(Nc2cnc3ccc(F)cc3c2)n1)C(N)=O [Example 232, (R)-5-(1-amino-1-oxobutan-2-ylamino)-3-(6-fluoroquinolin-3-ylamino)pyrazine-2-carboxamide]
CC[C@@H](Nc1cnc(C(N)=O)c(Nc2cnc3cc(F)ccc3c2)n1)C(N)=O [Example 233, (R)-5-(1-amino-1-oxobutan-2-ylamino)-3-(7-fluoroquinolin-3-ylamino)pyrazine-2-carboxamide]
CC(C)(C)[C@@H](Nc1cnc(C(N)=O)c(Nc2cnc3ccc(F)cc3c2)n1)C(N)=O [Example 234, (R)-5-(1-amino-3,3-dimethyl-1-oxobutan-2-ylamino)-3-(6-fluoroquinolin-3-ylamino)pyrazine-2-carboxamide]
CC[C@@H](Nc1cnc(C(N)=O)c(Nc2cc(C3CC3)ns2)n1)C(N)=O [Example 238, (R)-5-(1-amino-1-oxobutan-2-ylamino)-3-(3-cyclopropylisothiazol-5-ylamino)pyrazine-2-carboxamide]
C[C@@H](Nc1cnc(C(N)=O)c(Nc2cc(C3CC3)ns2)n1)C(N)=O [Example 239, (R)-5-(1-amino-1-oxopropan-2-ylamino)-3-(3-cyclopropylisothiazol-5-ylamino)pyrazine-2-carboxamide]
CC(C)c1cc(Nc2nc(N[C@H](C)C(N)=O)cnc2C(N)=O)sn1 [Example 241, (R)-5-(1-amino-1-oxopropan-2-ylamino)-3-(3-isopropylisothiazol-5-ylamino)pyrazine-2-carboxamide]
NC(=O)c1ncc(N[C@@H]2CCCC(F)(F)[C@@H]2N)nc1Nc1cc(C2CC2)ns1 [Example 242, 5-((1R,2R)-2-amino-3,3-difluorocyclohexylamino)-3-(3-cyclopropylisothiazol-5-ylamino)pyrazine-2-carboxamide]
C[C@@H](Nc1cnc(C(N)=O)c(Nc2cnc3ccc(F)cc3c2)n1)C(N)=O [Example 243, (R)-5-(1-amino-1-oxopropan-2-ylamino)-3-(6-fluoroquinolin-3-ylamino)pyrazine-2-carboxamide]
CC(C)(C)[C@@H](Nc1cnc(C(N)=O)c(Nc2cc(C3CC3)ns2)n1)C(N)=O [Example 244, (R)-5-(1-amino-3,3-dimethyl-1-oxobutan-2-ylamino)-3-(3-cyclopropylisothiazol-5-ylamino)pyrazine-2-carboxamide]
CC(C)(C)C[C@@H](Nc1cnc(C(N)=O)c(Nc2cnc3cccnc3c2)n1)C(N)=O [Example 246, (R)-3-(1,5-naphthyridin-3-ylamino)-5-(1-amino-4,4-dimethyl-1-oxopentan-2-ylamino)pyrazine-2-carboxamide]
CC(C)(C)C[C@@H](Nc1cnc(C(N)=O)c(Nc2cncc(F)c2)n1)C(N)=O [Example 247, (R)-5-(1-amino-4,4-dimethyl-1-oxopentan-2-ylamino)-3-(5-fluoropyridin-3-ylamino)pyrazine-2-carboxamide]
CN(C)C(=O)c1cc(Nc2nc(N[C@@H]3CCCC[C@@H]3N)cnc2C(N)=O)sn1 [Example 248, 5-(6-((1R,2S)-2-aminocyclohexylamino)-3-carbamoylpyrazin-2-ylamino)-N,N-dimethylisothiazole-3-carboxamide]
NC(=O)c1ncc(N[C@@H]2CCCC[C@@H]2N)nc1Nc1cc(CO)ns1 [Example 250, 5-((1R,2S)-2-aminocyclohexylamino)-3-(3-(hydroxymethyl)isothiazol-5-ylamino)pyrazine-2-carboxamide]
COc1cncc(Nc2nc(N[C@H](CC(C)(C)C)C(N)=O)cnc2C(N)=O)c1 [Example 253, (R)-5-(1-amino-4,4-dimethyl-1-oxopentan-2-ylamino)-3-(5-methoxypyridin-3-ylamino)pyrazine-2-carboxamide]
COc1cc(Nc2nc(N[C@H](CC(C)(C)C)C(N)=O)cnc2C(N)=O)ccn1 [Example 256, (R)-5-(1-amino-4,4-dimethyl-1-oxopentan-2-ylamino)-3-(2-methoxypyridin-4-ylamino)pyrazine-2-carboxamide]

pIC50, > 9.00:
NC(=O)c1ncc(N[C@@H]2CCCC[C@@H]2N)nc1Nc1snc2sccc12 [Example 252, 5-((1R,2S)-2-aminocyclohexylamino)-3-(thieno[2,3-c]isothiazol-3-ylamino)pyrazine-2-carboxamide]

pIC50, 7.00 to 8.00:
CC(C)[C@@H](Nc1cnc(C(N)=O)c(Nc2cncc(Cl)c2)n1)C(N)=O [Example 222, (R)-5-(1-amino-3-methyl-1-oxobutan-2-ylamino)-3-(5-chloropyridin-3-ylamino)pyrazine-2-carboxamide]
CC[C@@H](Nc1cnc(C(N)=O)c(Nc2cncc(Cl)c2)n1)C(N)=O [Example 223, (R)-5-(1-amino-1-oxobutan-2-ylamino)-3-(5-chloropyridin-3-ylamino)pyrazine-2-carboxamide]
CCc1cc(Nc2nc(N[C@@H]3CCCC(F)(F)[C@@H]3N)cnc2C(N)=O)sn1 [Example 226, 5-((1R,2R)-2-amino-3,3-difluorocyclohexylamino)-3-(3-ethylisothiazol-5-ylamino)pyrazine-2-carboxamide]
NC(=O)c1ncc(N[C@@H]2CCCC(F)(F)[C@@H]2N)nc1Nc1cnc2cc(F)ccc2c1 [Example 227, 5-((1R,2R)-2-amino-3,3-difluorocyclohexylamino)-3-(7-fluoroquinolin-3-ylamino)pyrazine-2-carboxamide]
CC[C@@H](Nc1cnc(C(N)=O)c(Nc2cc(C(C)(C)C)ns2)n1)C(N)=O [Example 228, (R)-5-(1-amino-1-oxobutan-2-ylamino)-3-(3-tert-butylisothiazol-5-ylamino)pyrazine-2-carboxamide]
CC(C)(C)c1cc(Nc2nc(N[C@H](CC3CC3)C(N)=O)cnc2C(N)=O)sn1 [Example 229, (R)-5-(1-amino-3-cyclopropyl-1-oxopropan-2-ylamino)-3-(3-tert-butylisothiazol-5-ylamino)pyrazine-2-carboxamide]
CN1C(=O)COc2ccc(Nc3nc(N[C@@H]4CCCC(F)(F)[C@@H]4N)cnc3C(N)=O)cc21 [Example 230, 5-((1R,2R)-2-amino-3,3-difluorocyclohexylamino)-3-(4-methyl-3-oxo-3,4-dihydro-2H-benzo[b][1,4]oxazin-6-ylamino)pyrazine-2-carboxamide]
NC(=O)c1ncc(N[C@@H]2CCCC[C@@H]2N)nc1Nc1cc(C2CC2)no1 [Example 231, 5-((1R,2S)-2-aminocyclohexylamino)-3-(3-cyclopropylisoxazol-5-ylamino)pyrazine-2-carboxamide]
CC(C)(C)[C@@H](Nc1cnc(C(N)=O)c(Nc2ccc3cccnc3c2)n1)C(N)=O [Example 235, (R)-5-(1-amino-3,3-dimethyl-1-oxobutan-2-ylamino)-3-(quinolin-7-ylamino)pyrazine-2-carboxamide]
CCc1cc(Nc2nc(N[C@@H](C(N)=O)C(C)(C)C)cnc2C(N)=O)sn1 [Example 236, (R)-5-(1-amino-3,3-dimethyl-1-oxobutan-2-ylamino)-3-(3-ethylisothiazol-5-ylamino)pyrazine-2-carboxamide]
CC(C)(C)[C@@H](Nc1cnc(C(N)=O)c(Nc2cnc3cccnc3c2)n1)C(N)=O [Example 237, (R)-3-(1,5-naphthyridin-3-ylamino)-5-(1-amino-3,3-dimethyl-1-oxobutan-2-ylamino)pyrazine-2-carboxamide]
CC[C@@H](Nc1cnc(C(N)=O)c(Nc2cc(C(C)C)ns2)n1)C(N)=O [Example 240, (R)-5-(1-amino-1-oxobutan-2-ylamino)-3-(3-isopropylisothiazol-5-ylamino)pyrazine-2-carboxamide]
CC[C@@H](Nc1cnc(C(N)=O)c(Nc2cc(CO)ns2)n1)C(N)=O [Example 251, (R)-5-(1-amino-1-oxobutan-2-ylamino)-3-(3-(hydroxymethyl)isothiazol-5-ylamino)pyrazine-2-carboxamide]
NC(=O)c1ncc(N[C@@H]2CCCC[C@@H]2N)nc1Nc1cc(CN2CCOCC2)ns1 [Example 255, 5-((1R,2S)-2-aminocyclohexylamino)-3-(3-(morpholinomethyl)isothiazol-5-ylamino)pyrazine-2-carboxamide]
CC[C@@H](Nc1cnc(C(N)=O)c(Nc2cc(COC)ns2)n1)C(N)=O [Example 257, (R)-5-(1-amino-1-oxobutan-2-ylamino)-3-(3-(methoxymethyl)isothiazol-5-ylamino)pyrazine-2-carboxamide]

pIC50, 6.00 to 7.00:
CC[C@@H](Nc1cnc(C(N)=O)c(Nc2cc(C(=O)N(C)C)ns2)n1)C(N)=O [Example 249, (R)-5-(6-(1-amino-1-oxobutan-2-ylamino)-3-carbamoylpyrazin-2-ylamino)-N,N-dimethylisothiazole-3-carboxamide]
CC[C@@H](Nc1cnc(C(N)=O)c(Nc2cc(CN3CCOCC3)ns2)n1)C(N)=O [Example 254, (R)-5-(1-amino-1-oxobutan-2-ylamino)-3-(3-(morpholinomethyl)isothiazol-5-ylamino)pyrazine-2-carboxamide]

From patent US9359308B2, “Pyrazine kinase inhibitors” (Portola Pharmaceuticals, Inc., priority 2011, dated 2016)
